In the supplement of paper PMC9512659:

How the values were obtained:
[1] = test system: Mycobacterium tuberculosis Erdman (pMV306hsp+LuxG13); experiment: AUC25, normalised area under the dose-response curve up to IC25 (normalised AUC (unitless)); higher = more potent
Procedure: (§1)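 DiaMOND pairwise dose responses of an equipotent two-drug mixture (1.5-fold, 10-dose series) against autoluminescent M. tuberculosis Erdman in 384-well plates. Growth inhibition was read by OD600 (luminescence for dormancy) in seven media at a constant and a terminal time point; metrics are means of at least biological duplicates. Einf and AUC25 higher = more potent; GRinf lower = more potent; log2FIC negative = synergy.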

[2] = test system: Mycobacterium tuberculosis Erdman (pMV306hsp+LuxG13); experiment: Einf, effect of the drug pair at infinite dose (maximum growth inhibition) (fraction inhibition (0-1)); higher = more potent; extreme values may be limits of the assay
Procedure: as §1

[3] = test system: Mycobacterium tuberculosis Erdman (pMV306hsp+LuxG13); experiment: log2 fractional inhibitory concentration at 50% inhibition (log2 FIC); higher = more antagonistic
Procedure: as §1

[4] = test system: Mycobacterium tuberculosis Erdman (pMV306hsp+LuxG13); experiment: log2 fractional inhibitory concentration at 90% inhibition (log2 FIC); higher = more antagonistic
Procedure: as §1

[5] = test system: Mycobacterium tuberculosis Erdman (pMV306hsp+LuxG13); experiment: GRinf, normalised growth-rate inhibition at infinite dose (GR value (unitless, negative = killing)); higher = less potent
Procedure: as §1

COc1nc2ccc(Br)cc2cc1[C@@H](c1ccccc1)[C@@](O)(CCN(C)C)c1cccc2ccccc12 [bedaquiline] + CC(=O)NC[C@H]1CN(c2ccc(N3CCSCC3)c(F)c2)C(=O)O1 [sutezolid]
Conditions | AUC25, [1] | Einf, [2] | GRinf, [5] | log2 fractional inhibitory concentration, [3] | log2 fractional inhibitory concentration, [4]
growth medium: acidic pH 5.7, glycerol, time point: constant time point | 0.107 | 0.875 | -0.198 | -0.156 | –
growth medium: acidic pH 5.7, glycerol, time point: terminal time point | 0.0983 | 0.978 | -0.241 | -0.088 | -0.436
growth medium: butyrate 5 mM, time point: constant time point | 0.0619 | 0.885 | 0.0684 | 2.21 | –
growth medium: butyrate 5 mM, time point: terminal time point | 0.0554 | 0.949 | 0.0372 | 2.08 | 0.353
growth medium: cholesterol 0.05 mM, time point: constant time point | 0.0778 | 1 | -0.927 | 0.352 | 0.332
growth medium: cholesterol 0.05 mM, time point: terminal time point | 0.132 | 1 | -0.972 | -0.0748 | 0.434
growth medium: cholesterol 0.2 mM (cholesterol-high), time point: constant time point | 0.0763 | 1 | -1 | -0.0255 | 0.279
growth medium: cholesterol 0.2 mM (cholesterol-high), time point: terminal time point | 0.115 | 1 | -0.792 | -0.681 | 0.315
growth medium: standard 7H9 OADC glycerol, time point: constant = terminal time point (4.2 d) | 0.048 | 0.977 | -0.0902 | -0.344 | -1.24
growth medium: valerate 0.1%, time point: constant time point | 0.0485 | 0.864 | -0.287 | 1.21 | –
growth medium: valerate 0.1%, time point: terminal time point | 0.09 | 0.991 | -0.176 | 0.264 | 0.567

growth medium: hypoxic dormancy (butyrate + nitrate), then recovery
Conditions | AUC25, [1] | Einf, [2] | GRinf, [5] | log2 fractional inhibitory concentration, [3] | log2 fractional inhibitory concentration, [4]
time point: constant time point | 0.0577 | 0.989 | 0.17 | -0.353 | -0.371
time point: terminal time point | 0.0431 | 0.975 | 0.359 | 0.424 | -0.465

COc1nc2ccc(Br)cc2cc1[C@@H](c1ccccc1)[C@@](O)(CCN(C)C)c1cccc2ccccc12 [bedaquiline] + CC(C)=CCC/C(C)=C/CNCCNC1C2CC3CC(C2)CC1C3 [SQ109]
Conditions | AUC25, [1] | Einf, [2] | GRinf, [5] | log2 fractional inhibitory concentration, [3] | log2 fractional inhibitory concentration, [4]
growth medium: butyrate 5 mM, time point: constant time point | 0.0731 | 0.963 | -0.11 | 0.85 | 0.414
growth medium: butyrate 5 mM, time point: terminal time point | 0.0507 | 0.979 | -0.0824 | 0.817 | 0.616
growth medium: cholesterol 0.05 mM, time point: constant time point | 0.085 | 0.82 | -0.737 | 0.241 | –
growth medium: cholesterol 0.2 mM (cholesterol-high), time point: constant time point | 0.0719 | 1 | -0.847 | 0.546 | 0.667
growth medium: cholesterol 0.2 mM (cholesterol-high), time point: terminal time point | 0.0884 | 1 | -0.779 | 0.31 | 0.799
growth medium: standard 7H9 OADC glycerol, time point: constant = terminal time point (4.2 d) | 0.0609 | 0.967 | -0.158 | 0.0969 | –
growth medium: valerate 0.1%, time point: constant time point | 0.0593 | 0.996 | -0.151 | 0.191 | -0.0839
growth medium: valerate 0.1%, time point: terminal time point | 0.047 | 0.993 | -0.127 | 0.276 | -0.384

growth medium: hypoxic dormancy (butyrate + nitrate), then recovery
Conditions | AUC25, [1] | Einf, [2] | GRinf, [5] | log2 fractional inhibitory concentration, [3] | log2 fractional inhibitory concentration, [4]
time point: constant time point | 0.0746 | 0.992 | -0.388 | 1.24 | 1.04
time point: terminal time point | 0.0292 | 0.964 | 0.0989 | -0.811 | -0.972
